Source: US20100137305A1, “AMINOPYRIMIDINES USEFUL AS KINASE INHIBITORS” (VERTEX PHARMACEUTICALS INCORPORATED, priority 2008, published 2010)
Like-named read-outs stand apart in the source and are kept apart here.

How the values were obtained:
Aurora-1 (Aurora B) = Aurora-1 (Aurora B) (Homo sapiens, UniProt Q96GD4); assay: Aurora-1 (Aurora B) Inhibition Assay (radiometric); assay type: biochemical; conditions: 800 μM ATP; read-out: Aurora B kinase activity Ki
Procedure: An assay buffer solution was prepared which consisted of 25 mM HEPES (pH 7.5), 10 mM MgCl2, 0.1% BSA and 10% glycerol. A 22 nM Aurora-B solution, also containing 1.7 mM DTT and 1.5 mM Kemptide (LRRASLG), was prepared in assay buffer. To 22 μL of the Aurora-B solution, in a 96-well plate, was added 2 μl of a compound stock solution in DMSO and the mixture allowed to equilibrate for 10 minutes at 25° C. The enzyme reaction was initiated by the addition of 16 μl stock [γ-^33P]-ATP Pi-ATP solution (˜20 nCi/μL) prepared in assay buffer, to a final assay concentration of 800 μM. The reaction was stopped after 3 hours by the addition of 16 μL 500 mM phosphoric acid and the levels of ^33P incorporation into the peptide substrate were determined by the following method.
A phosphocellulose 96-well plate (Millipore, Cat no. MAPHNOB50) was pre-treated with 100 μL of a 100 mM phosphoric acid prior to the addition of the enzyme reaction mixture (40 μL). The solution was left to soak on to the phosphocellulose membrane for 30 minutes and the plate subsequently washed four times with 200 μL of a 100 mM phosphoric acid. To each well of the dry plate was added 30 μL of Optiphase ‘SuperMix’ liquid scintillation cocktail (Perkin Elmer) prior to scintillation counting (1450 Microbeta Liquid Scintillation Counter, Wallac). Levels of non-enzyme catalyzed background radioactivity were determined by adding 16 μL of the 500 mM phosphoric acid to control wells, containing all assay components (which acts to denature the enzyme), prior to the addition of the [γ-^33P]-ATP solution. Levels of enzyme catalyzed ^33P incorporation were calculated by subtracting mean background counts from those measured at each inhibitor concentration. For each Ki determination 8 data points, typically covering the concentration range 0-10 μM compound, were obtained in duplicate (DMSO stocks were prepared from an initial compound stock of 10 mM with subsequent 1:2.5 serial dilutions). Ki values were calculated from initial rate data by non-linear regression using the Prism software package (Prism 3.0, Graphpad Software, San Diego, Calif.).

Colo205 cells = assay: Analysis of Cell Proliferation, 3H thymidine incorporation; assay type: cell-based; conditions: Homo sapiens
Procedure: Compounds were screened for their ability to inhibit cell proliferation using Colo205 cells obtained from ECACC and using the assay shown below.
Colo205 cells were seeded in 96 well plates and serially diluted compound was added to the wells in duplicate. Control groups included untreated cells, the compound diluent (0.1% DMSO alone) and culture medium without cells. The cells were then incubated for 72 or 96 hrs at 37C in an atmosphere of 5% CO2/95% humidity.
To measure proliferation, 3 h prior to the end of the experiment 0.5 μCi of 3H thymidine was added to each well. Cells were then harvested and the incorporated radioactivity counted on a Wallac microplate beta-counter. Dose response curves were calculated using either Prism 3.0 (GraphPad) or SoftMax Pro 4.3.1 LS (Molecular Devices) software.

Aurora-2 (Aurora A) = biological target: T1, Aurora-2 (Aurora A) (Homo sapiens, UniProt O14965); assay: Aurora-2 (Aurora A) Inhibition Assay, coupled enzyme assay; assay type: biochemical; conditions: 400 μM ATP, 30° C.; read-out: Aurora A kinase activity Ki
T1 sequence (O14965 1-403): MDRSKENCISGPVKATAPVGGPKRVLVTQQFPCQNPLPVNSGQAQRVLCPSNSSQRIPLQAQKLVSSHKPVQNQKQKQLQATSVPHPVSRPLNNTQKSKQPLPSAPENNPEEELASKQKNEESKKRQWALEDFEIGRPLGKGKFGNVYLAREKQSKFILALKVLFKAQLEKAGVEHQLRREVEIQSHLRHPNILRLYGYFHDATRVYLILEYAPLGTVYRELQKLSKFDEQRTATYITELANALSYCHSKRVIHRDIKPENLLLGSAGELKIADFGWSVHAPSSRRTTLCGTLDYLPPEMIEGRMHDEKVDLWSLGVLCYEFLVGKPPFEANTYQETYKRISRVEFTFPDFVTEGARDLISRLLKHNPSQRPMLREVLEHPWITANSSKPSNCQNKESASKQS
Procedure: Compounds were screened for their ability to inhibit Aurora-2 using a standard coupled enzyme assay (Fox et al., Protein Sci., (1998) 7, 2249). Assays were carried out in a mixture of 100 mM Hepes (pH7.5), 10 mM MgCl2, 1 mM DTT, 25 mM NaCl, 2.5 mM phosphoenolpyruvate, 300 μM NADH, 30 μg/ml pyruvate kinase and 10 μg/ml lactate dehydrogenase. Final substrate concentrations in the assay were 400 μM ATP (Sigma Chemicals) and 570 μM peptide (Kemptide, American Peptide, Sunnyvale, Calif.). Assays were carried out at 30° C. and in the presence of 40 nM Aurora-2.
An assay stock buffer solution was prepared containing all of the reagents listed above, with the exception of Aurora-2 and the test compound of interest. 55 μl of the stock solution was placed in a 96 well plate followed by addition of 2 μl of DMSO stock containing serial dilutions of the test compound (typically starting from a final concentration of 7.5 μM). The plate was preincubated for 10 minutes at 30° C. and the reaction initiated by addition of 10 μl of Aurora-2. Initial reaction rates were determined with a Molecular Devices SpectraMax Plus plate reader over a 10 minute time course. IC50 and Ki data were calculated from non-linear regression analysis using the Prism software package (GraphPad Prism version 3.0cx for Macintosh, GraphPad Software, San Diego Calif., USA).

[1] = COLO 205, 96 h, 96 hours, read-out: IC50 cell proliferation after 96 hours
[2] = COLO 205, 72 h, 72 hours, read-out: IC50 cell proliferation after 72 hours

Aurora-1 (Aurora B), sequence (Q96GD4 whole entry): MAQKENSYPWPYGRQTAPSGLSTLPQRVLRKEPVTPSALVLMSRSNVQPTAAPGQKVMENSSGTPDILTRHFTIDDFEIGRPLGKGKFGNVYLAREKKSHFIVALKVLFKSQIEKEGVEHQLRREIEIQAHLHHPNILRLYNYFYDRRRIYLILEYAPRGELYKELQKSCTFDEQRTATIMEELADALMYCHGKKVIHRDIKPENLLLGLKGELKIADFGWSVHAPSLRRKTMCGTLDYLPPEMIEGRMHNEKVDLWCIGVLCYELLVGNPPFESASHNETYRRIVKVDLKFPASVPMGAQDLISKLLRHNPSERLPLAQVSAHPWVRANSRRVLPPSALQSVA

Compound	Ki (Aurora-1 (Aurora B)) [nM]	IC50 (Colo205 cells; [1]) [nM]	Ki (Aurora-2 (Aurora A)) [nM]	IC50 (Colo205 cells; [2]) [nM]
Cc1cc(Nc2cc(N3CCC4(CCN(C)C4)CC3)nc(Sc3ccc(NC(=O)C4CC4)c(F)c3)n2)[nH]n1 [Compound I-32]	≤ 10	50 to 200	≤ 10	
CCC(=O)Nc1ccc(Sc2nc(Nc3cc(C)n[nH]3)cc(N3CCC(N4CCCC4(C)C)CC3)n2)cc1 [Compound I-33]	10 to 50	50 to 200	≤ 10	
Cc1cc(Nc2cc(N3CCC(F)C3)nc(Sc3ccc(NC(=O)c4ccccc4Cl)cc3)n2)[nH]n1 (centres unmarked) [Compound I-35]	≤ 10	50 to 200	≤ 10	
CCC(=O)Nc1ccc(Sc2nc(Nc3cc(C)n[nH]3)cc(N3CCC(N4CCOCC4)CC3)n2)cc1 [Compound I-40]	10 to 50	≤ 50	≤ 10	
CCC(=O)Nc1ccc(Sc2nc(Nc3cc(C)n[nH]3)cc(N3CCC(N4CCC(F)C4)CC3)n2)cc1 (centres unmarked) [Compound I-43]	10 to 50	≤ 50	≤ 10	
CCC(=O)Nc1ccc(Sc2nc(Nc3cc(C)n[nH]3)cc(N3CCC(O)(CC)CC3)n2)cc1 [Compound I-44]	10 to 50	≤ 50	≤ 10	
CCC(=O)Nc1ccc(Sc2nc(Nc3cc(C)n[nH]3)cc(N3CCC(C(C)(C)OC)CC3)n2)cc1 [Compound I-45]	10 to 50	≤ 50	≤ 10	
CCC(=O)Nc1ccc(Sc2nc(Nc3cc(C)n[nH]3)cc(N3CCC(N(C)C(C)(C)C)CC3)n2)cc1 [Compound I-47]	10 to 50	≤ 50	≤ 10	
CCC(=O)Nc1ccc(Sc2nc(Nc3ncc(C)s3)cc(N3CCC(N4CCCC4)CC3)n2)cc1 [Compound I-49]	10 to 50	≤ 50	≤ 10	
CN1CCC2(CCN(c3cc(Nc4cc(C5CC5)n[nH]4)nc(Sc4ccc(NC(=O)C5CC5)cc4)n3)CC2)C1 [Compound I-51]	10 to 50	≤ 50	≤ 10	
Cc1cc(Nc2cc(N3CCC4(CCN(C)C4)CC3)nc(Sc3ccc(NC(=O)C4CC4)cc3F)n2)[nH]n1 [Compound I-54]	10 to 50	≤ 50	≤ 10	
CCC(=O)Nc1ccc(Sc2nc(Nc3cc(C4CC4)n[nH]3)cc(N3CCC(N4CCCC4)CC3)n2)cc1 [Compound I-56]	10 to 50	≤ 50	≤ 10	≤ 25
CCC(=O)Nc1ccc(Sc2nc(Nc3cc(C)n[nH]3)cc(N3CCC(O)(C(C)C)CC3)n2)cc1 [Compound I-58]	10 to 50	≤ 50	≤ 10	
Cc1cnc(Nc2cc(N3CC4CCCNC4C3)nc(Sc3ccc(NC(=O)C4CC4)cc3)n2)s1 (centres unmarked) [Compound I-59]	10 to 50	≤ 50	≤ 10	≤ 25
CCC(=O)Nc1ccc(Sc2nc(Nc3cc(C4CC4)n[nH]3)cc(N3CC[C@H](N4CCCC4)C3)n2)cc1 [Compound I-62]	10 to 50	≤ 50	≤ 10	
Cc1cc(Nc2cc(N3CCC(N4CCN(C)CC4)CC3)nc(Sc3ccc(NC(=O)C4(C(F)(F)F)CC4)cc3)n2)[nH]n1 [Compound I-64]	10 to 50		≤ 10	≤ 25
Cc1cnc(Nc2cc(N3CCC(N4CCN(C)CC4)CC3)nc(Sc3ccc(NC(=O)CC(F)(F)F)cc3)n2)s1 [Compound I-66]	10 to 50		≤ 10	≤ 25
Cc1cc(Nc2cc(N3CCC(N4CCOCC4)CC3)nc(Sc3ccc(NC(=O)C4(C(F)(F)F)CC4)cc3)n2)[nH]n1 [Compound I-67]	≤ 10		≤ 10	≤ 25
Cc1cc(Nc2cc(N3CC[C@H](N(C)C)C3)nc(Sc3ccc(NC(=O)c4ccccc4C(F)(F)F)cc3)n2)[nH]n1 [Compound I-70]	≤ 10		≤ 10	≤ 25
Cc1cc(Nc2cc(N3CCC(N4CCN(C)CC4)CC3)nc(Sc3ccc(NC(=O)CC(F)(F)F)cc3)n2)[nH]n1 [Compound I-73]	10 to 50		≤ 10	≤ 25
Cc1cc(Nc2cc(N3CC[C@@H](F)C3)nc(Sc3ccc(NC(=O)c4ccccc4C(F)(F)F)cc3)n2)[nH]n1 [Compound I-74]	≤ 10		≤ 10	≤ 25
Cc1cc(Nc2cc(N3CCC(N4CCOCC4)CC3)nc(Sc3ccc(NC(=O)C4CC4(F)F)cc3)n2)[nH]n1 (centres unmarked) [Compound I-75]	10 to 50		≤ 10	25 to 125
Cc1cc(Nc2cc(N3CCC(F)C3)nc(Sc3ccc(NC(=O)c4ccccc4C(F)(F)F)cc3)n2)[nH]n1 (centres unmarked) [Compound I-76]	≤ 10		≤ 10	25 to 125
Cc1cc(Nc2cc(N3CCC(N4CCCC4)CC3)nc(Sc3ccc(NC(=O)CC4CCCC4)cc3)n2)n[nH]1 [Compound I-77]	10 to 50		≤ 10	25 to 125
Cc1cc(Nc2cc(N3CCC4(CC3)OCCO4)nc(Sc3ccc(NC(=O)CC(F)(F)F)cc3)n2)[nH]n1 [Compound I-79]	≤ 10		≤ 10	25 to 125
Cc1cc(Nc2cc(N3CCC(F)(F)CC3)nc(Sc3ccc(NC(=O)CC(F)(F)F)cc3)n2)[nH]n1 [Compound I-84]	10 to 50		≤ 10	25 to 125
